Test results taken from publication PMC12108757, “Discovery and Characterisation of Novel Poly-Histidine-Poly-Glycine Peptides as Matrix Metalloproteinase Inhibitors” (Biomolecules, 2025).

How the values were obtained:
[1] = UV-Vis spectroscopy of pHpGs and zinc–pHpG complexes; type: physicochemical; settings: 0.1 mM, 200–300 nm, room temperature; for UV–visible wavelength, zinc–pHpG complex: Zn^2+ complex; for UV–visible wavelength, peptide before zinc binding: peptide alone
Description: Ultraviolet–visible (UV–Vis) spectrum of pHpGs and zinc–pHpG complexes (0.1 mM) were recorded using a Shimadzu UV-2450 spectrophotometer (Shimadzu Corporation, Kyoto, Japan) in the wavelength range of 200–300 nm at room temperature.

[2] = Circular dichroism (CD) analysis; type: physicochemical; settings: 0.2 mM, 20 °C, CDNN software
Description: The synthetic pHpGs (0.2 mM) were analysed by CD spectroscopy to identify the secondary microstructure, respectively. Settings: scanning range of 180–260 nm, speed of 50 nm·min^−1, bandwidth of 1 nm, and a response time of 0.5 s. Secondary structure proportions (α-helices, β-sheets, β-turns, and random coils) were analysed via CDNN v2.1 software (Applied Photophysics Ltd., Leatherhead, UK).

human MMP-1 = assay: MMP-1 proteinase inhibition assay (time-dependent β-casein degradation, SDS-PAGE); type: biochemical; settings: for catalytic suppression of MMP-1: proteinase inhibition assay, summary in discussion; for inhibition of MMP-1 activity in hydrolysing β-casein: 0–24 h, MMP-1 pre-incubated with peptide (1:25 molar ratio), sodium phosphate buffer pH 6.5, 37 °C, 12% SDS-PAGE, Coomassie
Description: Proteolytic activity was assessed using β-casein (0.08 mM) as a substrate in a time-course assay (0–24 h). Enzymatic reactions were initiated by pre-incubating human MMP-1 with synthetic pHpG peptides (1:25 molar ratio) in a sodium phosphate buffer (pH 6.5) at 37 °C for 30 min. The recombinant human MMP-1 protein (rhMMP-1; ≥95% purity), obtained from MedChemExpress (Monmouth Junction, NJ, USA), was expressed in HEK293 cells as an unglycosylated form with a determined molecular weight of 49–61 kDa. The latent proenzyme requires activation via incubation with 1 mM aminophenylmercuric acetate at 37 °C for 2 h to generate the catalytically active form. Reactions were quenched with 5 mM EDTA at designated intervals, followed by electrophoretic separation on 12% SDS-PAGE and Coomassie staining. The negative control was β-casein in the absence of enzymatic catalysis, while water served as a system blank to monitor background interference.

HUVECs [3] = assay: Trans-well migration assay; type: cell-based, human; settings: 10% FBS, hVEGF165 25 ng/mL, 24 h, 37 °C; 3.125–25 μM
Description: HUVECs (2 × 10^5 cells) were seeded in the upper chamber of a modified Boyden chamber system (BD Sciences, Milpitas, CA, USA). The lower chamber contained medium with 10% FBS, hVEGF165 (25 ng/mL), pHpG-H7 peptide (3.125 μM, 6.25 μM, 12.5 μM, 25 μM), or water. After 24 h incubation (37 °C, 5% CO2), migrated cells on the lower membrane surface were fixed, stained with Crystal Violet, and imaged. Cell migration was quantified using ImageJ software.

HUVECs [4] = assay: Tube formation assay (Matrigel); type: cell-based, human; settings: hVEGF165-stimulated, 1% FBS, 8 h, 37 °C, 3.125–25 μM
Description: Matrigel™ Basement Membrane Matrix (BD Bioscience, Franklin Lakes, NJ, USA) was added to a 96-well plate to a total volume of 60 μL per well and polymerised at 37 °C with 5% CO2 for 30 min to form a gel layer. HUVECs (2 × 10^4 cells/well) in the medium with 1% FBS were seeded. Different concentrations of pHpG-H7 peptide (3.125 μM, 6.25 μM, 12.5 μM, 25 μM) were added to each well and incubated for 8 h (37 °C, 5% CO2). Results were detected by phase-contrast microscope (Olympus, Tokyo, Japan) and photographed. At least three representative fields from each well were selected to count the number of branching points.

HUVECs [5] = assay: Scratch wound healing assay; type: cell-based, human; settings: hVEGF165 25 ng/mL stimulated, serum-free, 12 h, 37 °C; across all groups 3.125–25 μM
Description: Human umbilical vein endothelial cells (HUVECs) were procured from the Shanghai Institute of Biochemistry and Cell Biology (Chinese Academy of Sciences, China). For the scratch wound healing assay, HUVECs were seeded in 24-well plates at a density of 1.2 × 10⁵ cells/well and cultured to form confluent monolayers. A linear wound was created by scraping with a sterile pipette tip. Serum-free Dulbecco’s modified Eagle medium containing 25 ng/mL of human vascular endothelial growth factor 165 (hVEGF165) was supplied, followed by the addition of either the pHpG-H7 peptide (3.125 μM, 6.25 μM, 12.5 μM, 25 μM) or water as a control. Cells were incubated for 12 h (37 °C, 5% CO2), and images were captured at 0 h (initial wound area) and 12 h. Wound healing was quantified using ImageJ 1.53t software, with a migration rate calculated as: Mobility (%) = (initial wound area–12 h residual area)/initial wound area × 100%.

SVMP = settings: ref [10]; cited from earlier work
Description: (§1) In the preceding investigation, we reported the presence of snake venom metalloproteinase in A. squamigera’s venom, which belongs to the Pep_M12B_propeptide family. […] This hypothesis is strongly supported by findings ...

[6] = test system: venom-induced haemorrhage; settings: ref [10]; cited from earlier work
Description: as §1

metalloproteinase = settings: ref [10]; cited from earlier work
Description: Time-dependent β-casein degradation mediated by MMP-1 was analysed. In the absence of pHpG peptides, β-casein was progressively degraded and fully hydrolysed within 24 h (Figure 4A).

Sequence | UV–visible wavelength, zinc–pHpG complex [1] [nm] | UV–visible wavelength, peptide before zinc binding [1] [nm] | Unorderd (random coil) [2] [%] | α-Helix [2] [%] | β-Strand [2] [%] | β-Turn [2] [%] | relative inhibitory effect on MMP-1 among the pHpG peptides (human MMP-1; comparison of pHpG-H5, pHpG-H7, pHpG-H9, β-casein, SDS-PAGE) | catalytic suppression of MMP-1 (human MMP-1) | inhibition of MMP-1 activity in hydrolysing β-casein (human MMP-1; β-casein 0.08 mM, 30 min) | earliest time of suppression of MMP-1 activity (human MMP-1; β-casein 0.08 mM, pre-incubation 1:25 molar ratio, pH 6.5, 37 °C, 30 min, SDS-PAGE, 'as early as') [h] | HUVECs migration (HUVECs [3]) | anti-angiogenesis effect (tube formation) (HUVECs [4]) | wound closure capability of HUVECs (HUVECs [5]) | SVMP activity (SVMP) | venom-induced haemorrhage [6] | metalloproteinase-mediated casein hydrolysis (metalloproteinase)
EDDHHHHHHHGVGGGGGGGGGG [pHpG-H7] | 215 | 212 | 46.4 | 6.2 | 13.6 | 29.4 | most pronounced inhibitory effect | potent catalytic suppression | significantly inhibited | ≤ 0.5 | inhibited by pHpG-H7 in a dose-dependent manner | anti-angiogenesis effects in a dose-dependent manner | significantly impaired | – | – | –
EDDHHHHHHHHHGVGGGGGGGGGG [pHpG-H9, Atheris pHpG-1 is equivalent to pHpG-H9, reference compound] | 218 | 210 | 47.5 | 6.3 | 11.7 | 30.7 | – | potent catalytic suppression | significantly inhibited | – | – | – | – | inhibition of SVMP activity | alleviation of venom-induced haemorrhage | inhibits
EDDHHHHHGVGGGGGGGGGG [pHpG-H5] | 216 | 214 | 29.2 | 12.1 | 40.6 | 21.6 | – | potent catalytic suppression | significantly inhibited | – | – | – | – | – | – | –
